From patent US20130253048A1, “Pharmaceutical Composition for Promoting Osteogenesis Containing Axial-equatorial Aryl-oriented Furofuran-type Lignan, and Pharmaceutical Preparation, Functional Food Product, and Health Food Product Comprising Composition” (ERINA CO., INC., priority 2010, published 2013)
Marks after values point to notes of the source that are not given here.

What was measured:
[1] = system: osteopenia mouse caused by sRANKL administration; assay: Osteopenia mouse caused by sRANKL administration, femur pQCT; format: in vivo; conditions: for Bone density of the cancellous bone, relative value / Bone density of the cortical bone, relative value / Bone density of whole bone, relative value: RANKL group = 100.0; for Bone density of the cancellous bone / Bone density of the cortical bone / Bone density of whole bone: day 4 to 13; for Bone density of whole bone: right femur, pQCT
Method: C57BL/6NCrlCrlj mice (6-week-age, female) were purchased from Oriental Yeast Co., Ltd. and kept to be acclimatized under the conditions of 12 hour light/dark cycle, 23±3 degree centigrade, and humidity 55±5% for 7 days. Two mice were in a cage, and the animal bedding was changed twice a week, and all fresh animal bedding was used at all times. As the feed, CRF-1 (Oriental Yeast Co., Ltd.), and deionized water as the drinking water were freely taken.
After the acclimatization, these mice were randomly divided into 4 groups (8 mice per group), sRANKL administration group and fargesin administration groups. Fargesin administration groups had 0.2 mg/kg/day administration group (it is referred to as “Far 0.2”, hereinbelow), 2 mg/kg/day administration group (it is referred to as “Far 2” herein below), and 20 mg/kg/day administration group (it is referred to as “Far 20” herein below). sRANKL (1 mg/kg/day, i.p) was administered to all mice on the first day and the second day from test start to cause osteopenia experimentally.
From the 4th day to 13th day after the test start, distilled water or the test compounds shown in the following Table 10 were daily administered to the mice in each group.
After the administration period was finished and the experiment was completed, the femurs were removed in the same way as employed in Example 6 to be excised to evaluate the bone density. Body weight of the test animals and feed intake by the test animals were measured twice a week during the administration period.
The experiments were performed as the same as done in Example 6, right femur chosen from the obtained femurs was used for measurement of the bone density.
The whole bone density, the cancellous bone density, the cortical bone density, the boundary length of the cortical bone adventitia, the length of the cortical bone endosteum, and the bone strength were measured at the site of −0.6 mm from the growth plate of the bone (see FIG. 3A).

[2] = system: mouse monocyte macrophage type cells under RANKL stimulation; conditions: cited from earlier work
MC3T3-E1 cells = assay: Calcification of the osteoblast (ALP activity, alizarin red) in MC3T3-E1; format: cell-based, mouse
Method: MC3T3-E1 cells as the same as those used in Example 4 were used. In addition, 50 μg/ml of L-ascorbic acid and 10 mM β-Glycerophosphate (both from Sigma-Aldrich Japan Co. LLC.) were added to the basal medium employed in the Example 3 was used. Fargesin prepared in the Example 1 was added to the medium the concentration at 2 to 80 μM.
MC3T3-E1 was inoculated in each well of the 96 well plates at 4,000 cells/well, and then the plate was pre-cultured by using only basal mediums under the condition of 5% CO2 and 37 degree centigrade for 2 days. After that, the medium was exchanged to the medium containing 50 μg/ml of L-ascorbic acid, 10 mM β-Glycerophosphate, and fargesin, and it was incubated under the condition of 5% CO2 and 37 degree centigrade for 5 days. After the termination of the incubation, the measurement of ALP activity and the differentiated cells were observed as the same as those in Example 3.
Mineral deposition was stained by using 1% alizarin red observed as the bone calcification (Wako Pure Chemical Industries, Ltd.) according to the conventional method, and then it was observed as the bone calcification.

[3] = sRANKL-treated mice, Far 0.2: 0.2 mg/kg/day p.o.
[4] = sRANKL-treated mice, Far 2: 2 mg/kg/day p.o.
[5] = sRANKL-treated mice, Far 20: 20 mg/kg/day p.o.

Which results are given for `COc1ccc([C@@H]2OC[C@H]3[C@@H]2CO[C@@H]3c2ccc3c(c2)OCO3)cc1OC` [fargesin, Fargesin]?
Bone density of the cancellous bone, relative value ([1]; Far 0.2: 0.2 mg/kg/day p.o.): (100.7); Bone density of the cortical bone, relative value ([1]; Far 0.2: 0.2 mg/kg/day p.o.): (98.7); Bone density of whole bone, relative value ([1]; Far 0.2: 0.2 mg/kg/day p.o.): 99.5; Bone density of the cancellous bone, relative value ([1]; Far 2: 2 mg/kg/day p.o.): (104.0); Bone density of the cortical bone, relative value ([1]; Far 2: 2 mg/kg/day p.o.): (98.9); Bone density of whole bone, relative value ([1]; Far 2: 2 mg/kg/day p.o.): 99.5; Bone density of the cancellous bone, relative value ([1]; Far 20: 20 mg/kg/day p.o.): (129.4)*; Bone density of the cortical bone, relative value ([1]; Far 20: 20 mg/kg/day p.o.): (98.6); Bone density of whole bone, relative value ([1]; Far 20: 20 mg/kg/day p.o.): 110; bone strength, Polar coordinates strength (SSI) ([1]; sRANKL-treated mice, 0.2 to 20 mg/kg/day p.o.): trend that the bone strength was improved; Bone density of the cancellous bone [1, 3]: 261.64 ± 17.92 mg/mL; Bone density of the cortical bone [1, 3]: 797.40 ± 6.12 mg/mL; Bone density of whole bone [1, 3]: 484.33 ± 11.09 mg/mL; Bone density of the cancellous bone [1, 4]: 270.30 ± 20.64 mg/mL; Bone density of the cortical bone [1, 4]: 798.60 ± 4.56 mg/mL; Bone density of whole bone [1, 4]: 487.30 ± 16.36 mg/mL; Bone density of the cancellous bone [1, 5]: 336.25 ± 13.50 mg/mL; Bone density of the cortical bone [1, 5]: 796.33 ± 3.89 mg/mL; Bone density of whole bone [1, 5]: 532.69 ± 8.06 mg/mL; phosphorylation of p38 and I-κB by RANKL stimulation ([2]; RANKL stimulation): inhibits the phosphorylation; tartrate-resistant acid phosphatase activities ([2]; mouse monocyte macrophage type cells under RANKL stimulation, or marrow monocytoid cells in culture): dose-dependently inhibits; Mineral deposition (calcification), alizarin red staining (MC3T3-E1 cells; 60 to 80 μM, MC3T3-E1): increased mineral deposition side; activity at 2 µM (MC3T3-E1 cells; Mus musculus, 120 h, 2 μM, MC3T3-E1 with L-ascorbic acid and β-Glycerophosphate, 5 days, negative control = 100): 93.3 ± 2.6%; activity at 6 µM (MC3T3-E1 cells; Mus musculus, 120 h, 6 μM, MC3T3-E1 with L-ascorbic acid and β-Glycerophosphate, 5 days, negative control = 100): 92.8 ± 1.6%; activity at 20 µM (MC3T3-E1 cells; Mus musculus, 120 h, 20 μM, MC3T3-E1 with L-ascorbic acid and β-Glycerophosphate, 5 days, negative control = 100): 107 ± 3.8%; activity at 60 µM (MC3T3-E1 cells; Mus musculus, 120 h, 60 μM, MC3T3-E1 with L-ascorbic acid and β-Glycerophosphate, 5 days, negative control = 100): 173 ± 13.7%; activity at 80 µM (MC3T3-E1 cells; Mus musculus, 120 h, 80 μM, MC3T3-E1 with L-ascorbic acid and β-Glycerophosphate, 5 days, negative control = 100): 172 ± 12.2%
